Experimental findings from patent US20230062100A1, “SUBSTITUTED AMINOQUINOLONES AS DGKALPHA INHIBITORS FOR IMMUNE ACTIVATION” (Bayer Aktiengesellschaft, priority 2019, published 2023) are described below.

Structures are written as SMILES.

The experiment has as its target DGKα (Homo sapiens, UniProt P23743). Nature of the experiment: Human DGKα kinase activity inhibition assay (ADP-Glo). The experiment is classed as biochemical. Conditions: in vitro human DGKα kinase activity inhibition assay. The essentials:
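C-terminally FLAG-tagged full-length human DGKα from baculovirus/insect cells (typically ~0.1 nM) phosphorylated 1,2-dioleoyl-sn-glycerol in octyl-β-D-glucopyranoside micelles in MOPS pH 7.4. ADP formed was quantified by ADP-Glo luminescence after 1 h ATP depletion at 22 °C.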
On the technique in general: In ADP-Glo the light output rises with the ADP produced.

Chain of DGKα (P23743 with tags, fused parts or gaps): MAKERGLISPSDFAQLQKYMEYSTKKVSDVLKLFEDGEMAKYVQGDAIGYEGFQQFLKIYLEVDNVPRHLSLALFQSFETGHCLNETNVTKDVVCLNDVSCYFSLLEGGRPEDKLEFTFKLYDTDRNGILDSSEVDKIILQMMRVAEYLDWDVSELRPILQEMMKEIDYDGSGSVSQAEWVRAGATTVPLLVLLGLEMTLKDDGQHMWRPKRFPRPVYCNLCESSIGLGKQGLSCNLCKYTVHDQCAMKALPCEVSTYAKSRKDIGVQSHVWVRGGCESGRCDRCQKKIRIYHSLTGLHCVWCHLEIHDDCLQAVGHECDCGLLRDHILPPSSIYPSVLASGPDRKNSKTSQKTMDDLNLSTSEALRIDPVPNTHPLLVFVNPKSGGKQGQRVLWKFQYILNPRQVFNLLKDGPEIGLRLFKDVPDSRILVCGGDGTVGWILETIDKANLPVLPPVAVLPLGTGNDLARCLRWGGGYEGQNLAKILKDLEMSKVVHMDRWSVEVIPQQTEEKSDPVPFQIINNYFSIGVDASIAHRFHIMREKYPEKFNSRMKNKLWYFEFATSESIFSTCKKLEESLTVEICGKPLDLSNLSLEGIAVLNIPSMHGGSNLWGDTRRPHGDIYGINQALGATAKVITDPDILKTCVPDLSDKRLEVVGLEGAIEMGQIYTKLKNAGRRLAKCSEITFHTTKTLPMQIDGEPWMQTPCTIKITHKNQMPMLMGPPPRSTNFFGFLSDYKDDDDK

As usually defined, the IC50 is the midpoint of a concentration-inhibition curve. The low end stands for higher potency, the high end for lower potency. Compound `Cn1c(=O)c(C#N)c(N2CCC(COc3ccccc3Cl)CC2)c2ccccc21` [Example 120, 4-{4-[(2-chlorophenoxy)methyl]piperidin-1-yl}-1-methyl-2-oxo-1,2-dihydroquinoline-3-carbonitrile] came in with an IC50 of 51 nM.

In turn, `Cn1c(=O)c(C(N)=O)c(N2CCC(OCc3ccccc3)CC2)c2ccccc21` [Example 121, 4-[4-(benzyloxy)piperidin-1-yl]-1-methyl-2-oxo-1,2-dihydroquinoline-3-carboxamide] displayed a concentration for half-maximal inhibition (IC50) of 16 nM.

`Cc1ccc(COC2CCN(c3c(C(N)=O)c(=O)n(C)c4ccccc34)CC2)cc1` [Example 122, 1-methyl-4-{4-[(4-methylphenyl)methoxy]piperidin-1-yl}-2-oxo-1,2-dihydroquinoline-3-carboxamide] showed a half-maximal inhibitory concentration (IC50) of 7.1 nM.

The compound `Cc1cccc(COC2CCN(c3c(C(N)=O)c(=O)n(C)c4ccccc34)CC2)c1` [Example 123, 1-methyl-4-{4-[(3-methylphenyl)methoxy]piperidin-1-yl}-2-oxo-1,2-dihydroquinoline-3-carboxamide] registered an IC50 of 14 nM.

On to `Cc1ccccc1COC1CCN(c2c(C(N)=O)c(=O)n(C)c3ccccc23)CC1` [Example 124, 1-methyl-4-{4-[(2-methylphenyl)methoxy]piperidin-1-yl}-2-oxo-1,2-dihydroquinoline-3-carboxamide], for which the IC50 was determined as 30 nM.

`COc1cccc(COC2CCN(c3c(C(N)=O)c(=O)n(C)c4ccccc34)CC2)c1` [Example 125, 4-{4-[(3-methoxyphenyl)methoxy]piperidin-1-yl}-1-methyl-2-oxo-1,2-dihydroquinoline-3-carboxamide] registered an IC50 of 43 nM.

Turning to `Cn1c(=O)c(C(N)=O)c(N2CCC(OCc3ccccc3F)CC2)c2ccccc21` [Example 126, 4-{4-[(2-fluorophenyl)methoxy]piperidin-1-yl}-1-methyl-2-oxo-1,2-dihydroquinoline-3-carboxamide], the IC50 came out at 14 nM.

Regarding `Cn1c(=O)c(C(N)=O)c(N2CCC(OCc3ccc(F)cc3)CC2)c2ccccc21` [Example 127, 4-{4-[(4-fluorophenyl)methoxy]piperidin-1-yl}-1-methyl-2-oxo-1,2-dihydroquinoline-3-carboxamide], the IC50 came out at 14 nM.

In the case of `Cn1c(=O)c(C(N)=O)c(N2CCC(OCc3cccc(F)c3)CC2)c2ccccc21` [Example 128, 4-{4-[(3-fluorophenyl)methoxy]piperidin-1-yl}-1-methyl-2-oxo-1,2-dihydroquinoline-3-carboxamide], it took 29 nM to reach half-maximal inhibition (IC50).

Consider `Cn1c(=O)c(C#N)c(N2CCC(Oc3ccc(OC(F)(F)F)cc3)CC2)c2cccc(F)c21` [Example 129, 8-fluoro-1-methyl-2-oxo-4-{4-[4-(trifluoromethoxy)phenoxy]piperidin-1-yl}-1,2-dihydroquinoline-3-carbonitrile], for which half-maximal inhibition (IC50) was put at 29 nM.

`Cn1c(=O)c(C#N)c(N2CCC(Oc3ccc(OC(F)(F)F)cc3)CC2)c2cccc(Br)c21` [Example 130, 8-bromo-1-methyl-2-oxo-4-{4-[4-(trifluoromethoxy)phenoxy]piperidin-1-yl}-1,2-dihydroquinoline-3-carbonitrile] displayed an IC50 of 202 nM.

Turning to `Cn1c(=O)c(C#N)c(N2CCC(Oc3ccc(OC(F)(F)F)cc3)CC2)c2cccc(Cl)c21` [Example 131, 8-chloro-1-methyl-2-oxo-4-{4-[4-(trifluoromethoxy)phenoxy]piperidin-1-yl}-1,2-dihydroquinoline-3-carbonitrile], 18 nM corresponded to half-maximal inhibition (IC50).

Compound `Cn1c(=O)c(C#N)c(N2CCC(Oc3ccc(OC(F)(F)F)cc3)CC2)c2cccc(C#N)c21` [Example 132, 1-methyl-2-oxo-4-{4-[4-(trifluoromethoxy)phenoxy]piperidin-1-yl}-1,2-dihydroquinoline-3,8-dicarbonitrile] yielded a concentration for half-maximal inhibition (IC50) of 536 nM.

`Cn1c(=O)c(C#N)c(N2CCC(Oc3ccc(OC(F)(F)F)cc3)CC2)c2cccc(N3CCCC3=O)c21` [Example 133, 1-methyl-2-oxo-8-(2-oxopyrrolidin-1-yl)-4-{4-[4-(trifluoromethoxy)phenoxy]piperidin-1-yl}-1,2-dihydroquinoline-3-carbonitrile] gave an IC50 of 55 nM.

For the compound `Cn1c(=O)c(C#N)c(N2CCC(Oc3ccc(OC(F)(F)F)cc3)CC2)c2cccc(N=S(C)(C)=O)c21` [Example 134, 8-{[dimethyl(oxo)-λ^6-sulfanylidene]amino}-1-methyl-2-oxo-4-{4-[4-(trifluoromethoxy)phenoxy]piperidin-1-yl}-1,2-dihydroquinoline-3-carbonitrile], the IC50 was 37 nM.

In turn, `Cn1c(=O)c(C#N)c(N2CCC(Oc3ccc(OC(F)(F)F)cc3)CC2)c2cccc(P(C)(C)=O)c21` [Example 135, 8-(dimethylphosphoryl)-1-methyl-2-oxo-4-{4-[4-(trifluoromethoxy)phenoxy]piperidin-1-yl}-1,2-dihydroquinoline-3-carbonitrile] showed an IC50 of 1370 nM.

`Cn1c(=O)c(C#N)c(N2CCC(Oc3ccc(OC(F)(F)F)cc3)CC2)c2cccc(S(C)(=O)=O)c21` [Example 136, 8-(methanesulfonyl)-1-methyl-2-oxo-4-{4-[4-(trifluoromethoxy)phenoxy]piperidin-1-yl}-1,2-dihydroquinoline-3-carbonitrile] had an IC50 of 2.5 nM.

As for `Cn1c(=O)c(C#N)c(N2CCC(Oc3ccc(F)cc3)CC2)c2cc(Br)ccc21` [Example 137, 6-bromo-4-[4-(4-fluorophenoxy)piperidin-1-yl]-1-methyl-2-oxo-1,2-dihydroquinoline-3-carbonitrile], the half-maximal inhibitory concentration (IC50) worked out at 1.9 nM.

For the compound `COc1cccc(OC2CCN(c3c(C#N)c(=O)n(C)c4ccc(Br)cc34)CC2)c1` [Example 138, 6-bromo-4-[4-(3-methoxyphenoxy)piperidin-1-yl]-1-methyl-2-oxo-1,2-dihydroquinoline-3-carbonitrile], the IC50 is 1.5 nM.

Consider `Cn1c(=O)c(C#N)c(N2CCC(Oc3ccc(OC(F)(F)F)cc3)CC2)c2cc(Br)ccc21` [Example 139, 6-bromo-1-methyl-2-oxo-4-{4-[4-(trifluoromethoxy)phenoxy]piperidin-1-yl}-1,2-dihydroquinoline-3-carbonitrile], for which the IC50 was found to be 2.5 nM.

In turn, `Cn1c(=O)c(C#N)c(N2CCC(Sc3ccccc3)CC2)c2cc(Br)ccc21` [Example 140, 6-bromo-1-methyl-2-oxo-4-[4-(phenylsulfanyl)piperidin-1-yl]-1,2-dihydroquinoline-3-carbonitrile] gave an IC50 of 1.4 nM.

The compound `Cc1ccc2c(c1)c(N1CCC(Oc3ccc(F)cc3)CC1)c(C#N)c(=O)n2C` [Example 141, 4-[4-(4-fluorophenoxy)piperidin-1-yl]-1,6-dimethyl-2-oxo-1,2-dihydroquinoline-3-carbonitrile] came in with an IC50 of 7.7 nM.

`Cc1ccc2c(c1)c(N1CCC(Sc3ccccc3)CC1)c(C#N)c(=O)n2C` [Example 142, 1,6-dimethyl-2-oxo-4-[4-(phenylsulfanyl)piperidin-1-yl]-1,2-dihydroquinoline-3-carbonitrile] came in with an IC50 of 2 nM.

On to `Cc1ccc2c(c1)c(N1CCC(Oc3ccc(OC(F)(F)F)cc3)CC1)c(C#N)c(=O)n2C` [Example 143, 1,6-dimethyl-2-oxo-4-{4-[4-(trifluoromethoxy)phenoxy]piperidin-1-yl}-1,2-dihydroquinoline-3-carbonitrile], for which half-maximal inhibition (IC50) was put at 4.7 nM.

On to `Cn1c(=O)c(C#N)c(N2CCC(Sc3ccccc3)CC2)c2cc(C#N)ccc21` [Example 144, 1-methyl-2-oxo-4-[4-(phenylsulfanyl)piperidin-1-yl]-1,2-dihydroquinoline-3,6-dicarbonitrile], for which the IC50 was 3 nM.

In turn, `Cn1c(=O)c(C#N)c(N2CCC(Oc3ccc(OC(F)(F)F)cc3)CC2)c2cc(C#N)ccc21` [Example 145, 1-methyl-2-oxo-4-{4-[4-(trifluoromethoxy)phenoxy]piperidin-1-yl}-1,2-dihydroquinoline-3,6-dicarbonitrile] showed an IC50 of 4.4 nM.

In turn, `Cn1c(=O)c(C#N)c(N2CCC(Oc3ccc(F)cc3)CC2)c2cc(C#N)ccc21` [Example 146, 4-[4-(4-fluorophenoxy)piperidin-1-yl]-1-methyl-2-oxo-1,2-dihydroquinoline-3,6-dicarbonitrile] yielded an IC50 of 17 nM.

`Cn1c(=O)c(C#N)c(N2CCC(Sc3ccccc3)CC2)c2cc(C3CC3)ccc21` [Example 147, 6-cyclopropyl-1-methyl-2-oxo-4-[4-(phenylsulfanyl)piperidin-1-yl]-1,2-dihydroquinoline-3-carbonitrile] had an IC50 of 32 nM.

Consider `Cn1c(=O)c(C#N)c(N2CCC(Oc3ccc(F)cc3)CC2)c2cc(C3CC3)ccc21` [Example 148, 6-cyclopropyl-4-[4-(4-fluorophenoxy)piperidin-1-yl]-1-methyl-2-oxo-1,2-dihydroquinoline-3-carbonitrile], for which the IC50 was determined as 73 nM.

For `Cc1cccc(OC2CCN(c3c(C#N)c(=O)n(C)c4ccc(C)cc34)CC2)c1` [Example 149, 1,6-dimethyl-4-[4-(3-methylphenoxy)piperidin-1-yl]-2-oxo-1,2-dihydroquinoline-3-carbonitrile], the IC50 was found to be 7.7 nM.

As to `Cc1ccc2c(c1)c(N1CCC(Oc3ccccc3C)CC1)c(C#N)c(=O)n2C` [Example 150, 1,6-dimethyl-4-[4-(2-methylphenoxy)piperidin-1-yl]-2-oxo-1,2-dihydroquinoline-3-carbonitrile], 50 nM corresponded to half-maximal inhibition (IC50).

Regarding `Cc1ccc2c(c1)c(N1CCC(Oc3ccccc3Cl)CC1)c(C#N)c(=O)n2C` [Example 151, 4-[4-(2-chlorophenoxy)piperidin-1-yl]-1,6-dimethyl-2-oxo-1,2-dihydroquinoline-3-carbonitrile], the half-maximal inhibitory concentration (IC50) is 60 nM.

As for `COc1cccc(OC2CCN(c3c(C#N)c(=O)n(C)c4ccc(C)cc34)CC2)c1` [Example 152, 4-[4-(3-methoxyphenoxy)piperidin-1-yl]-1,6-dimethyl-2-oxo-1 2-dihydroquinoline-3-carbonitrile], 3.8 nM corresponded to half-maximal inhibition (IC50).

Take `COc1cc(C)ccc1OC1CCN(c2c(C#N)c(=O)n(C)c3ccc(C)cc23)CC1` [Example 153, 4-[4-(2-methoxy-4-methylphenoxy)piperidin-1-yl]-1,6-dimethyl-2-oxo-1,2-dihydroquinoline-3-carbonitrile]: the IC50 was determined as 10 nM.
